Data reported in US9943500B2, “Methods of treating topical microbial infections” (LUODA PHARMA PTY LIMITED, priority 2013, dated 2018).

Columns and labels:
[1] = system: ATCC 49775 reference strain; assay: Macrodilution time-kill assay (viable counts); details: 24 hours; all concentrations tested
Protocol: (§1) Due to the detection limit of the OD measurements, the time-kill assays were also performed in macrodilution. In 15 mL tubes, 9 mL volumes of the test compounds in CAMHB were prepared at one, four and eight times the MIC concentration and 9 mL volumes of ampicillin were prepared in CAMHB at one and four times the MIC. 1 mL of a 4 to 5×10^6 bacterial suspension (as prepared for MIC testing) was added to each of the tubes as well as a growth control tube containing only 9 mL of CAMHB. These tubes were incubated at 37° C. in an orbital shaker rotating at 100 rpm for 24 hours. At 0, 1, 4, 8, 12 and 24 hours after addition of the bacteria, 100 μL samples were removed from each tube and serial diluted in 9.1 g/L saline solution. The dilutions were then plated in duplicate onto plate count agar and incubated for 24 hours at 37° C. After incubation, viable counts were obtained from the number of colonies visible on the agar and these were used to calculate the number of CFU/mL at each time point. For the macrodilution time-kill analysis, only the ATCC 49775 reference strain and MRSA 9 were assessed in order to further investigate the antibacterial activity against methicillin-resistant strains. These macrodilution time-kill assays were independently repeated and bactericidal activity was defined as a ≥3 log decrease in the number of CFU/mL.

MRSA 9 = assay: Macrodilution time-kill assay (viable counts); details: 24 hours; all concentrations tested
Protocol: as §1

Staphylococcus aureus = assay: Skin wound infection model in mice, topical ointment (Example 5); assay type: in vivo; details: LP1369 ointment 20 mg/g, 11 treatments
From the text: Preliminary studies prior to the conduct to the current study established a new method of skin infection arising from a detailed study of the models mentioned above. Briefly, study mice are anaesthetised, a patch of dorsal skin is clipped to reveal the skin and a circular area of skin is removed with a hand held punch, leaving a wound on the dorsum with a central cavity. The wound is infected with a known number of the challenge organism. Approximately four to six hours after infection, the wound is either treated topically with a vehicle formulation or an active formulation. The infected skin wound is retreated every 12 hours for a total of 11 treatments. Mice are humanely euthanased, the area of the original infected wound is dissected and removed and its bacterial content quantified by standard microbiologic tests. In this way, the change in bacterial concentration due to treatment with the active formulation can be readily determined by examining the reduction in bacterial burden compared with the vehicle control.
Fresh cultures of bacteria were grown on Sheep Blood Agar at 37° C. for 16-18 hours. […] The density of the suspension was checked by measuring absorbance at 600 nm, using a spectrophotometer with saline as a blank, to confirm the target density at a reading of approximately 0.100, consistent with a bacterial density of 2.5×10^8 CFU/ml. […]

[2] = system: methicillin sensitive and methicillin-resistant staphylococci; assay: Minimum inhibitory concentration assay, 42 Staphylococcus isolates (Example 1); assay type: cell-based
Protocol: Forty-two isolates of Staphylococcus of varying species and strain type were collected from isolate collections. Biochemical testing including coagulase, latex agglutination testing for protein A, Vogues-Proskauer tests and resistance to polymyxin B were used to identify the species of Staphylococcus. All isolates were also screened for resistance to various antimicrobials commonly used for the treatment of skin infections. This was performed using the disk diffusion method and resistance standards as outlined by the CLSI. The following antimicrobials were used: amoxicillin-clavulanic acid (30 μg), cephalothin (30 μg), clindamycin (2 μg), enrofloxacin (5 μg), erythromycin (15 μg), gentamicin (10 μg), imipenem (10 μg), oxacillin (1 μg), penicillin G (10 units), tetracycline (30 μg), 1:19 trimethoprim-sulfamethoxazole (25 μg) and vancomycin (30 μg).
Minimum inhibitory concentration tests were performed according to CLSI Standards (CLSI 2012). 90 μL of one of the test compound solutions, or ampicillin, was added to the end column of a 96 well plate that contained 90 μL of CAMHB in each well. The solutions were then serially diluted across the row, leaving 2 columns for positive and negative controls (FIG. 2). A bacterial suspension was prepared by adding fresh colonies obtained from an overnight culture on Sheep Blood Agar (SBA) to a 9.1 g/L saline solution. This suspension was adjusted to a concentration of between 4×10^8 and 5×10^8 CFU/mL. […] 1 mL of this suspension was added to 9 mL of saline before being added to all wells, excluding the negative control wells, in 10 μL volumes giving a final concentration of between 4×10^5 and 5×10^5 CFU/mL in each well. The tests were then incubated for 24 hours at 37° C. and then assessed both visually and using OD readings from a microplate reader at a wavelength of 600 nm. These tests were performed in duplicate but repeated if discrepancies were observed.
The minimum inhibitory concentration (MIC) was determined to be the lowest concentration of antibiotic that prevented growth of bacteria both visually and using OD readings. Direct statistical comparisons between the test compounds and ampicillin could not be performed in light of confidential information restrictions, such as restrictions on disclosure of information relating to the compound structure, such as molecular weight. Instead, MIC values were collated and used to determine the lowest concentration of each compound that was effective against 50% and 90% of isolates, referred to as the MIC50 and MIC90 respectively. These values as well as the range of MIC values were then used for direct comparisons between test compounds and for general comparisons with ampicillin.

CC[C@@H](C(=O)[C@@H](C)[C@@H](O)[C@H](C)CCc1ccc(C)c(O)c1C(=O)O)[C@H]1O[C@](CC)([C@H]2CC[C@](O)(CC)[C@H](C)O2)C[C@@H]1C [LP 1369, Lasalocid]
decrease in the number of viable bacteria [1]: < 3 log10 | decrease in the number of viable bacteria (MRSA 9): < 3 log10 | decrease in bacterial load compared to vehicle control mice (Staphylococcus aureus): statistically significant | reduction of the bacterial population (Staphylococcus aureus; every 12 hours, versus vehicle): greater than 99% | MIC50 and MIC90 values compared with ampicillin [2]: considerably lower than ampicillin
